Laboratory results published in paper PMC9409043, “Serotonin 5-HT6 Receptor Ligands and Butyrylcholinesterase Inhibitors Displaying Antioxidant Activity—Design, Synthesis and Biological Evaluation of Multifunctional Agents against Alzheimer’s Disease” (International Journal of Molecular Sciences, 2022).
Where “and” joins values, the source holds several entries; their conditions need not be identical. Identical values can stand only once.

How the values were obtained:
[1] = target: T1, human recombinant AChE (hAChE) (Homo sapiens, UniProt P22303); experiment: biochemical; conditions: mean ± SEM of at least three experiments
T1 construct: purchased Sigma-Aldrich (Steinheim, Germany)
Method: (§1) 5-HT6R binding affinity and cholinesterase (AChE/BuChE) inhibitory activity. […] Their affinities for recombinant human 5-HT6 receptors (h5-HT6R) were tested in a radioligand binding assay and the inhibitory potencies against human recombinant AChE (hAChE) and BuChE isolated from human plasma (hBuChE) in the spectrophotometric Ellman’s assay.
(§2) The assay was based on spectrophotometric Ellman’s method and was performed in 96-well microplates with the reagents purchased from Sigma-Aldrich (Steinheim, Germany) according to the previously described procedure. hBuChE was kindly donated by Vivonics (Bedford, MA, USA). […] After 5 minutes of the enzymatic reaction, the changes in absorbance were measured at 412 nm, using a microplate reader (SPECTROstar Nano; BMG Labtech, Ortenberg, Germany). First, compounds were tested at the screening concentration of 10 µM. Based on the equation 100 − (S/B) × 100 (where S and B were the respective enzyme activities with and without the test sample, respectively) the percentage inhibition of each enzyme for each compound was calculated. […] The IC50 values were calculated using nonlinear regression (GraphPad Prism 5; GraphPad Software, San Diego, CA, USA) by plotting the residual enzyme activities against the applied inhibitor concentration. […] All experiments were performed in triplicate.

[2] = ABTS free radical scavenging assay
Text: Antioxidant activity. As mentioned before, oxidative stress is one of the components of AD pathomechanism and is characterised by an imbalance in the production of ROS. One of the mechanisms by which antioxidants reduce the concentration of ROS and therefore prevent or slow the cell damage caused by free radicals is scavenging them. Thus, we tested the scavenging ability of compounds 12–19 in the spectrophotometric ABTS assay that we used before. In this assay, the ability of compounds to scavenge ABTS^• radicals, which are generated from 2,2’-azino-bis(3-ethylbenzothiazoline-6-sulphonic acid) (ABTS), is measured. We tested the compounds at three concentrations: 30, 75 and 150 μM after 5, 30 and 60 min of incubation using Trolox, a water-soluble vitamin E analogue, as a reference (Table S1 in Supporting information).
The spectrophotometric ABTS assay was performed in 96-well microplates with the reagents purchased from Sigma-Aldrich (Steinheim, Germany) according to the previously described procedure. Stock solutions of the tested compounds (6.4 mM) and reagents were prepared in DMSO and water, respectively. 2,2′-Azino-bis(3-ethylbenzothiazoline-6-sulfonic acid) free radical (ABTS^•) was prepared by mixing the stock solution of ABTS (7 mM) and […] (2.45 mM) in ratio 1:1. The mixture was kept in the dark at 4 °C for 16 h. The obtained solution of (ABTS^•) was diluted with water 20 times. Then, the test compound or water or mixture of DMSO/water in the appropriate ratio (0.02 mL) was added to ABTS^• solution (0.18 mL). The three concentrations of the test compounds and Trolox were tested in triplicate: 0.15, 0.075 and 0.03 mM. Changes in absorbance were measured at 734 nm after 5, 30 and 60 min, using a microplate reader (SPECTROstar Nano; BMG Labtech, Ortenberg, Germany). Based on the equation ((A0 − A)/A0) × 100% (where A0 and A were the absorbances without and with the test compound, respectively) the percentage of free radical scavenging activity was calculated. The results are presented as mean ± SD.

[3] = target: T2, BuChE isolated from human plasma (hBuChE) (Homo sapiens, UniProt P06276); experiment: biochemical; type: biochemical; conditions: mean ± SEM of at least three experiments
T2 construct: BuChE isolated from human plasma (hBuChE); tissue Vivonics (Bedford, MA, USA), donated; host or cells: human plasma
Method: as §1, §2

human 5-HT6 receptor = target: T3, human 5-HT6 receptor (Homo sapiens, UniProt P50406); experiment: 5-HT6 receptor radioligand binding assay ([3H]-LSD, CHO-K1 membranes)
T3 construct: purchased PerkinElmer; host or cells: CHO-K1 cells, stably transfected (membrane preparation)
Method: 5-HT6R binding affinity and cholinesterase (AChE/BuChE) inhibitory activity. We evaluated the pharmacological properties of the final compounds 12–19 in vitro according to the previously described, well-established protocols. Their affinities for recombinant human 5-HT6 receptors (h5-HT6R) were tested in a radioligand binding assay and the inhibitory potencies against human recombinant AChE (hAChE) and BuChE isolated from human plasma (hBuChE) in the spectrophotometric Ellman’s assay. […].
We prepared 10 mM of stock solutions of tested compounds in DMSO. Serial dilutions of compounds were prepared in a 96-well microplate in assay buffers using the automated pipetting system epMotion 5070 (Eppendorf). Each compound was tested in 8 concentrations from 10^−5 to 10^−12 M (final concentration).
The radioligand binding assay was performed using membranes from CHO-K1 cells stably transfected with the human 5-HT6 receptor (PerkinElmer) according to the previously described procedure. All assays were carried out in duplicates. We prepared 50 µL working solution of the tested compounds, 50 µL [^3H]-LSD (final concentration 2.5 nM) and 150 µL diluted membranes (15 µg protein per well) in assay buffer (50 mM Tris, pH 7.4, 10 mM MgCl2, 0.1 mM EDTA) and transferred them to polypropylene 96-well microplates using a 96-well pipetting station Rainin Liquidator (MettlerToledo). Methiothepin (10 μM) was used to define nonspecific binding. The microplate was covered with sealing tape, mixed and incubated for 60 min at 27 °C. The reaction was terminated by rapid filtration through GF/B filter mate presoaked with 0.5% polyethyleneimine for 30 min. Ten rapid washes with 200 µL 50 mM Tris buffer (4 °C, pH 7.4) were performed using the automated harvester system Harvester-96 MACH III FM (Tomtec). The filter mates were dried at 37 °C in a forced air fan incubator and then solid scintillator MeltiLex was melted on filter mates at 90 °C for 5 min. Radioactivity was counted in MicroBeta2 scintillation counter (PerkinElmer). Data were fitted to a one-site curve-fitting equation with Prism 6 (GraphPad Software) and Ki values were estimated from the Cheng−Prusoff equation.

[4] = Metabolic stability in human liver microsomes; type: in vitro ADME
Method: Metabolic stability. […] For detailed results, including UPLC chromatograms and MS spectra, see the Supporting information (Figures S1–S16).
The metabolic stability was evaluated by incubation of compounds with human liver microsomes (Sigma-Aldrich, St. Louis, MO, USA) in 10 mM Tris–HCl buffer (pH 7.4) at 37 °C for 120 min in the presence of NADPH Regeneration System (Promega, Madison, WI, USA). The percentage of the remaining substrate and the most probable metabolic pathways were estimated by UPLC-MS analyses of the reaction mixtures.

[5] = Metabolic stability in mouse liver microsomes; type: in vitro ADME; conditions: 2 h, pH 7.4
CYP2D6 = target: T4, CYP2D6 (Homo sapiens, UniProt P10635); experiment: CYP P450-Glo luminescence assay, CYP2D6; type: in vitro ADME
T4 construct: purchased Promega, Madison, WI, USA
Text: Influence on CYP3A4 and CYP2D6 activity. Possible drug–drug interactions (DDIs) are an important issue for elderly patients, who are usually on multiple medications. They may result, among other things, from the interactions (inhibition or activation) of the cytochrome P450 isoenzymes, especially CYP3A4 and CYP2D6, which play the most significant role in drugs’ biotransformation. Therefore, to predict the potential influence of the studied compounds (14, 16 and 19) on the metabolism of other drugs, we used the CYP450 inhibition luminescence assay (Promega). […]. […] […]. […] […].
The influence on CYP 3A4 and 2D6 activity was estimated by respective luminescent CYP P450-Glo™ assay (Promega®, Madison, WI, USA). The compounds were tested in the concentration range of 0.1–25 µM. The results were compared to the respective reference CYP inhibitors: ketoconazole and quinidine.

[6] = system: patients with moderate Alzheimer’s dementia; conditions: phase II, adjunct to cholinesterase inhibitors, moderate Alzheimer’s dementia ref 14, 15; cited from earlier work

T4 sequence (P10635 whole entry): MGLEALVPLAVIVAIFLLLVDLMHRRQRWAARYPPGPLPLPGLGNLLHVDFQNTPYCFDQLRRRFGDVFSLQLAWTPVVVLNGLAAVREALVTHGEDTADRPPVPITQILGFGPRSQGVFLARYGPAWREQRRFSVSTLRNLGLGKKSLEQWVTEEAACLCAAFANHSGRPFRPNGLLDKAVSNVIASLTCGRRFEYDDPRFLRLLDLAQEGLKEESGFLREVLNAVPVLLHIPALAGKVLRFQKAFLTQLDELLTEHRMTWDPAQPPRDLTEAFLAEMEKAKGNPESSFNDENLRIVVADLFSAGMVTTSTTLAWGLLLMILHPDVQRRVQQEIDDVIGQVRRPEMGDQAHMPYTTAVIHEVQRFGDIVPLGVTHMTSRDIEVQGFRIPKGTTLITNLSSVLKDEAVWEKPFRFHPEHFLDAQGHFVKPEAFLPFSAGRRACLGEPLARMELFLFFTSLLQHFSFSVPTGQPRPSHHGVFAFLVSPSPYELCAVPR
T3 sequence (P50406 whole entry): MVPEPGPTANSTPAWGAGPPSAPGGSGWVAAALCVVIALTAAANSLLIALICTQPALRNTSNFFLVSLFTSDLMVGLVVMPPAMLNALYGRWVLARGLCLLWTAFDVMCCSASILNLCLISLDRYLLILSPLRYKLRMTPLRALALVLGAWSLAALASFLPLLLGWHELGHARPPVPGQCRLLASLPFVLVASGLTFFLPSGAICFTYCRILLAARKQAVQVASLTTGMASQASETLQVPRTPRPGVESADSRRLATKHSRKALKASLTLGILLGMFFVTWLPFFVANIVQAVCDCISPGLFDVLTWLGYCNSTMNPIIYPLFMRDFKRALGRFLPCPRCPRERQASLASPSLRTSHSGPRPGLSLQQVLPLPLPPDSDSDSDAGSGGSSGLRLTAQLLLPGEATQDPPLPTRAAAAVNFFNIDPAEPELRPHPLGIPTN
T2 sequence (P06276 29-602): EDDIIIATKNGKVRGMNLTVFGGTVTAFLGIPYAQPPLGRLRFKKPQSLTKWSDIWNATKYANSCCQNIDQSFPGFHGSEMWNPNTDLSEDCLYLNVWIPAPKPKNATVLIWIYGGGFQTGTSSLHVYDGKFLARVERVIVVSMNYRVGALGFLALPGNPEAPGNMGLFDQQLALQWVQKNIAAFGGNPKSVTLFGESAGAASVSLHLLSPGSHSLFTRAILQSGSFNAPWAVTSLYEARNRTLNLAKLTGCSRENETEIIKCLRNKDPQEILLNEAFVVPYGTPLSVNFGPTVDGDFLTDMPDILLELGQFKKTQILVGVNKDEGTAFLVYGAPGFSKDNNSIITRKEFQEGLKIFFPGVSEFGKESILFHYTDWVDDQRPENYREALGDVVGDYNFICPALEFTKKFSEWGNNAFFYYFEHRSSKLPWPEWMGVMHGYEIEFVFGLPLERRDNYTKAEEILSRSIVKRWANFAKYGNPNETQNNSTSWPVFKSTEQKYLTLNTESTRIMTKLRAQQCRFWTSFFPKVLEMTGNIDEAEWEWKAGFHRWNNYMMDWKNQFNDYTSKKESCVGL
T1 sequence (P22303 32-614): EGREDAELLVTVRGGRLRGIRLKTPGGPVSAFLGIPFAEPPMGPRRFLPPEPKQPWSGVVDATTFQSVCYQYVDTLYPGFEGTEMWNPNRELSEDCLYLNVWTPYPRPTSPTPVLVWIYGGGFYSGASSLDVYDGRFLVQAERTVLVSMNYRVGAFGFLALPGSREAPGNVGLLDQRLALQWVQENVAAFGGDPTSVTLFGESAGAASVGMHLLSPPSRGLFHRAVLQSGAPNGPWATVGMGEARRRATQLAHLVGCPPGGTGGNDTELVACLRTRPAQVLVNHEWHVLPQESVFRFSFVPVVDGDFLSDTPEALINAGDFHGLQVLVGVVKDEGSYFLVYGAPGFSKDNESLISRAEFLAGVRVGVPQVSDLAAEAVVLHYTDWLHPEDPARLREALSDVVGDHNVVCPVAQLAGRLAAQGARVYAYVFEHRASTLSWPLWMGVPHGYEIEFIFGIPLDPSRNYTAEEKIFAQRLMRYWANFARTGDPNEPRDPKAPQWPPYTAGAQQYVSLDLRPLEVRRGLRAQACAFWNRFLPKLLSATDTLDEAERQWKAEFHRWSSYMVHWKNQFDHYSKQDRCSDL

SMILES	IC50 [1]	% of ABTS• reduction ± SD ([2]; 30 µM, 5 min)	% of ABTS• reduction ± SD ([2]; 30 µM, 30 min)	% of ABTS• reduction ± SD ([2]; 30 µM, 60 min)	% of ABTS• reduction ± SD ([2]; 75 µM, 5 min)	% of ABTS• reduction ± SD ([2]; 75 µM, 30 min)	% of ABTS• reduction ± SD ([2]; 75 µM, 60 min)	% of ABTS• reduction ± SD ([2]; 150 µM, 5 min)	% of ABTS• reduction ± SD ([2]; 150 µM, 30 min)	% of ABTS• reduction ± SD ([2]; 150 µM, 60 min)	IC50 [3]	Ki (human 5-HT6 receptor)	main metabolic pathway [4]	HLMs % Left ([4]; human, 2 h, pH 7.4)	MLMs % Left [5]	influence on the activity of CYP2D6 (CYP2D6; 0.1 µM)	influence on the activity of CYP2D6 (CYP2D6; 1 µM)	effects on cognition [6]
O=S(=O)(c1ccccc1)n1ccc2c(OCCNCCC3CCN(Cc4ccccc4)CC3)cccc21 [Compound 13, 2-(1-Benzylpiperidin-4-yl)-N-(2-((1-(phenylsulfonyl)-1H-indol-4-yl)oxy)ethyl)ethan-1-amine]	2260 ± 91 nM	5±1%	5±1%	6±1%	9±1%	11±1%	13±1%	20±0%	29±1%	34±1%	1110 ± 31 nM	17 ± 2 nM	–	–	–	–	–	–
O=c1[nH]c2c(OCCNCCCC3CCN(Cc4ccccc4)CC3)cccc2n1Cc1ccccc1 [Compound 19, 1-Benzyl-4-(2-((3-(1-benzylpiperidin-4-yl)propyl)amino)ethoxy)-1,3-dihydro-2H-benzo[d]imidazol-2-one]	544 ± 15 nM	10±0%	17±0%	22±1%	14±1%	24±2%	30±2%	25±4%	37±5%	43±4%	613 ± 11 nM	480 ± 48 nM	oxidative deamination	94.00%	79.38%	did not influence the activity of CYP2D6	CYP2D6-activating effect	–
Cc1c(C)c2c(c(C)c1O)CCC(C)(C(=O)O)O2 (stereo not drawn) [Trolox, reference compound]	–	59±2%	59±2%	59±2% and 59%	100±0%	100±0%	100%	100±0%	100±0%	100±0% and 100%	–	–	–	–	–	–	–	–
Fc1ccc2c(CCNCc3cccc(OCC(F)(F)C(F)F)c3)c[nH]c2c1 [Idalopirdine]	–	–	–	–	–	–	–	–	–	–	–	–	–	–	–	–	–	positive effects on cognition
